This assay concerns PC-3 cells. Description: Cofilin phosphorylation Western blot in PC-3 cells stimulated by HGF. Format: cell-based. The note with it: 50 nM. Background: Immunoblotting shows a protein as a band on a membrane.

For `Cc1c[nH]c2ncnc(-c3ccc(NC(=O)N(CCO)c4ccccc4)cc3)c12` [Compound 18b, 1-(2-Hydroxyethyl)-3-(4-(5-methyl-7H-pyrrolo[2,3-d]pyrimidin-4-yl)phenyl)-1-phenylurea], the “inhibition of cofilin phosphorylation in PC-3 cells (Western blot)” value was “significant inhibition”.

The values are drawn from paper PMC4349585 (Journal of medicinal chemistry, 2015).
